Measured values: US8889702B2, “Derivatives of azaspiranyl-alkylcarbamates of 5-member heterocyclic compounds, preparation thereof and therapeutic use thereof” (Sanofi, priority 2009, dated 2014)
pIC50: −log10 of the molar value.

Key:
[1] = molecular target: T1, enzyme FAAH (Fatty Acid Amide Hydrolase) (Mus musculus, UniProt O08914); test: radioenzymatic test: hydrolysis of anandamide [ethanolamine 1-3H] with FAAH, mouse brain membrane homogenates; format: biochemical; conditions: mouse brain membrane homogenate; preincubation 20 minutes at 25° C.; anandamide 10 μM; read-out: IC50 (concentration that inhibits 50% of the control enzymatic activity of FAAH)
T1 construct: The membrane homogenates are prepared extemporaneously by homogenizing the tissues; from tissue; host or cells: mouse brain (minus the cerebellum), membrane homogenate
T1 sequence (O08914 1-579): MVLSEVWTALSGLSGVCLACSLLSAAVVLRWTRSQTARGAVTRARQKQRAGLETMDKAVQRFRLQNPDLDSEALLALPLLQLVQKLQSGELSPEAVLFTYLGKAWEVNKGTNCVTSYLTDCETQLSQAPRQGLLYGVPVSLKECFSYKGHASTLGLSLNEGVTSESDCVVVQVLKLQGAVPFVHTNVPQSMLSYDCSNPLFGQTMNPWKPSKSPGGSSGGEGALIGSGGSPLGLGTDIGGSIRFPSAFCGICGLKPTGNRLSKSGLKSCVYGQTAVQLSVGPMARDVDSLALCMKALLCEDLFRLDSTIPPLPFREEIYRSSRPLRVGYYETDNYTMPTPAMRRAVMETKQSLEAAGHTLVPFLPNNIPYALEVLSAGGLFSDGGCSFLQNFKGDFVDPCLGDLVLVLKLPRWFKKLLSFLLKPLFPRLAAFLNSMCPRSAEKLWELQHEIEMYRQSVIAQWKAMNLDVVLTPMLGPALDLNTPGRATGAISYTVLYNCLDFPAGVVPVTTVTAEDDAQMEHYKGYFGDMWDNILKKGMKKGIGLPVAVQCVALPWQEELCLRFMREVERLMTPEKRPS
Description: The compounds of the invention underwent pharmacological tests to determine their inhibitory effect on the enzyme FAAH (Fatty Acid Amide Hydrolase).
Thus, mouse brains (minus the cerebellum) are removed and stored at −80° C. The membrane homogenates are prepared extemporaneously by homogenizing the tissues using a Precellys® machine in reaction buffer (10 mM Tris-HCl, pH=8, 150 mM NaCl and 1 mM ethylenediaminetetraacetic acid (EDTA)). The enzymatic reaction is performed in 96-well Multiscreen filtration plates in a final volume of 70 μL. Reaction buffer supplemented with fatty acid-free bovine serum albumin (BSA, 1 mg/ml) is used for the enzymatic reaction and the dilution of the compounds and of the anandamide [ethanolamine 1-^3H]. The reaction buffer containing BSA (43 μL/well), the diluted test compounds at different concentrations (7 μL/well containing 1% DMSO) and the membrane preparation (10 μL/well, i.e. 200 μg of tissue per test) are successively added to the wells. After preincubation for 20 minutes of the compounds with the enzyme at 25° C., the reaction is started by adding anandamide [ethanolamine 1-^3H]. (Specific activity of 15-20 Ci/mmol) diluted with cold anandamide (10 μL/well, final concentration of 10 μM, 0.01 μCi per test). After incubation for 20 minutes at 25° C., the enzymatic reaction is stopped by adding a […] of active charcoal prepared in 1.5M NaCl buffer and 0.5 M HCl (50 μL/well). The mixture is stirred for 10 minutes and the aqueous phase containing the ethanolamine [1-^3H] is then recovered by filtration under vacuum and counted by liquid scintillation.

male OF1 mice = test: test of analgesia: abdominal stretching induced with PBQ (phenylbenzoquinone); format: in vivo, mouse; conditions: 30 mg/kg p.o. at 120 minutes
Description: The in vivo activity of the compounds of the invention was evaluated in a test of analgesia.
Thus, the intraperitoneal (i.p.) administration of PBQ (phenylbenzoquinone, 2 mg/kg in 0.9% sodium chloride solution containing 5% ethanol) to male OF1 mice weighing 25 to 30 g causes abdominal stretching, on average 30 torsions or contractions within a period of 5 to 15 minutes after injection. The test compounds are administered orally (p.o.) or intraperitoneally (i.p.) suspended in Tween 80 at 0.5%, 60 minutes or 120 minutes before the administration of PBQ. Under these conditions, the compounds of the invention that are the most powerful reduce by 35% to 80% the number of stretches induced with PBQ, over a dose range of between 1 and 30 mg/kg.
For example, compound 5 of Table 1 reduces by 50% the number of stretches induced with PBQ, at a dose of 30 mg/kg p.o. at 120 minutes.

| SMILES | pIC50 [1] | melting point [°C] | reduction of the number of stretches induced with PBQ (male OF1 mice) [%] |
| --- | --- | --- | --- |
| NC(=O)c1cc(COC(=O)NC2CC3(CCN(c4ccc(-c5ccc(F)cc5)cn4)C3)C2)on1 (mixture of isomers) [Compound 10, 3-Carbamoylisoxazol-5-ylmethyl{6-[5-(4-fluorophenyl)pyridin-2-yl]-6-azaspiro[3.4]oct-2-yl}carbamate] | 8.64 | – | – |
| NC(=O)c1cc(COC(=O)NC2CC3(CCN(c4ccc(Br)cn4)CC3)C2)on1 [Compound 4, 3-carbamoylisoxazol-5-ylmethyl[7-(5-bromopyridin-2-yl)-7-azaspiro[3.5]non-2-yl]carbamate] | 8.09 | – | – |
| NC(=O)c1cc(COC(=O)NC2CC3(CCN(c4ccc(-c5ccc(F)cc5)cn4)CC3)C2)on1 [Compound 5, 3-Carbamoylisoxazol-5-ylmethyl{7-[5-(4-fluorophenyl)pyridin-2-yl]-7-azaspiro[3.5]non-2-yl}carbamate] | – | 216 to 218 | 50 |
| NC(=O)c1cc(COC(=O)NCC2CC3(CCN(c4ccc5cc(F)ccc5n4)CC3)C2)on1 [Compound 6, 3-Carbamoylisoxazol-5-ylmethyl[7-(6-fluoroquinolin-2-yl)-7-azaspiro[3.5]non-2-yl]methylcarbamate] | 9.60 | 190 to 192 | – |
| CNC(=O)c1cc(COC(=O)NC2CC3(CCN(c4ccc5cc(Cl)ccc5n4)CC3)C2)on1 [Compound 19, 3-(Methylcarbamoyl)isoxazol-5-ylmethyl[7-(6-chloroquinolin-2-yl)-7-azaspiro[3.5]non-2-yl]carbamate] | 8.74 | – | – |
| NC(=O)c1cc(COC(=O)NC2CC3(CCN(c4cncc(-c5ccc(F)cc5)n4)CC3)C2)on1 [Compound 25, 3-carbamoylisoxazol-5-ylmethyl{7-[6-(4-fluorophenyl)pyrazin-2-yl]-7-azaspiro[3.5]non-2-yl}carbamate] | 8.77 | – | – |
| CC(C)Cc1ccc(N2CCC3(CC2)CC(NC(=O)OCc2cc(C(N)=O)no2)C3)nc1 [Compound 31, 3-Carbamoylisoxazol-5-ylmethyl[7-(5-isobutylpyridin-2-yl)-7-azaspiro[3,5]non-2-yl]carbamate] | 8.37 | 178 to 180 | – |
| NC(=O)c1cc(COC(=O)NC2CC23CCN(c2nccc(C(F)(F)F)n2)CC3)on1 (stereo not drawn) [Compound 40, 3-Carbamoylisoxazol-5-ylmethyl[6-(4-trifluoromethylpyrimidin-2-yl)-6-azaspiro[2.5]oct-1-yl]carbamate] | 9.30 | – | – |

Continued, in another order:

| pIC50 [1] | melting point [°C] | SMILES | reduction of the number of stretches induced with PBQ (male OF1 mice) [%] |
| --- | --- | --- | --- |
| 9.07 | 171 to 173 | CNC(=O)c1cc(COC(=O)NCC2CC3(CCN(c4ccc(-c5ccc(F)cc5)cn4)C3)C2)on1 (single isomer, unassigned) [Compound 12, 3-(Methylcarbamoyl)isoxazol-5-ylmethyl 6-[5-(4-fluorophenyl)pyridin-2-yl]-6-azaspiro[3.4]oct-2-ylmethylcarbamate] | – |
| – | 180 to 182 | CNC(=O)c1cc(COC(=O)NCC2CC3(CCN(c4ccc(-c5ccc(F)cc5)cn4)C3)C2)on1 (single isomer, unassigned) [Compound 13, 3-(Methylcarbamoyl)isoxazol-5-ylmethyl 6-[5-(4-fluorophenyl)pyridin-2-yl]-6-azaspiro[3.4]oct-2-ylmethylcarbamate] | – |
| – | 203 to 205 | CNC(=O)c1cc(COC(=O)NC2CC3(CCN(c4ccc(-c5ccc(F)cc5)cn4)C3)C2)on1 (single isomer, unassigned) [Compound 17, 3-(Methylcarbamoyl)isoxazol-5-ylmethyl{6-[5-(4-fluorophenyl)pyridin-2-yl]-6-azaspiro[3.4]oct-2-yl}carbamate] | – |
| – | 194 to 196 | CNC(=O)c1cc(COC(=O)NC2CC3(CCN(c4ccc(-c5ccc(F)cc5)cn4)C3)C2)on1 (single isomer, unassigned) [Compound 18, 3-(Methylcarbamoyl)isoxazol-5-ylmethyl{6-[5-(4-fluorophenyl)pyridin-2-yl]-6-azaspiro[3.4]oct-2-yl}carbamate] | – |
| 9.14 | 219 to 221 | CNC(=O)c1cc(COC(=O)NC2CC3(CCN(c4ccc(-c5ccc(F)cc5)cn4)CC3)C2)on1 [Compound 8, 3-(Methylcarbamoyl)isoxazol-5-ylmethyl 7-[5-(4-fluorophenyl)pyridin-2-yl]-7-azaspiro[3.5]non-2-ylcarbamate] | – |
